Patent publication US8507540B2, “Oxazolidinone derivatives containing new bicyclic group, having antibacterial activity, and method for treating pathogenic bacterial infections using the same” (Korean Institute of Science and Technology, priority 2011, dated 2013)
In brackets after ≈: the same amount, converted by molar mass.

Key:
Staphylococcus pyogenes = assay: In vitro antibacterial activity test, Agar Dilution MIC; conditions: Staphylococcus aureus, 18 h
[1] = system: Staphylococcus pneumoniae, penicillin non-susceptible; assay: as above; conditions: 18 h
[2] = system: Staphylococcus agalactiae; assay: as above; conditions: 18 h
[3] = system: Enterococcus faecium, vancomycin susceptible; assay: as above; conditions: 18 h
[4] = system: Enterococcus faecalis, vancomycin susceptible; assay: as above; conditions: 18 h
[5] = system: Coagulase negative staphylococci, methicillin susceptible; assay: as above; conditions: 18 h
[6] = system: Staphylococcus pneumoniae, penicillin susceptible; assay: as above; conditions: 18 h
[7] = system: Enterococcus faecalis, vancomycin resistant; assay: as above; conditions: 18 h
[8] = system: Coagulase negative staphylococci, methicillin resistant; assay: as above; conditions: 18 h
[9] = system: Staphylococcus aureus, methicillin susceptible; assay: as above; conditions: 18 h
[10] = system: Staphylococcus aureus, methicillin resistant; assay: as above; conditions: 18 h
[11] = system: Enterococcus faecium, vancomycin resistant; assay: as above; conditions: 18 h
[12] = system: Haemophilus influenzae, beta-lactamase-positive; assay: as above; conditions: 18 h
[13] = system: Mycobacterium tuberculosis (Mtb) H37Rv; assay: In vitro antituberculous activity test, Microplate Alamar Blue Assay; format: cell-based; conditions: versus linezolid
[14] = system: MRSA and other gram positive bacteria; Staphylococcus sp., Enterococcus sp. and Haemophilus influenza; assay: In vitro antibacterial activity test, overall statements on the strain panel; conditions: various strains of Table 1
CYP2C9 = CYP2C9 (Homo sapiens, UniProt P11712); assay: CYP450 remaining test (Vivid CYP450 Screening Kits)
Sequence of CYP2C9 (P11712 whole entry): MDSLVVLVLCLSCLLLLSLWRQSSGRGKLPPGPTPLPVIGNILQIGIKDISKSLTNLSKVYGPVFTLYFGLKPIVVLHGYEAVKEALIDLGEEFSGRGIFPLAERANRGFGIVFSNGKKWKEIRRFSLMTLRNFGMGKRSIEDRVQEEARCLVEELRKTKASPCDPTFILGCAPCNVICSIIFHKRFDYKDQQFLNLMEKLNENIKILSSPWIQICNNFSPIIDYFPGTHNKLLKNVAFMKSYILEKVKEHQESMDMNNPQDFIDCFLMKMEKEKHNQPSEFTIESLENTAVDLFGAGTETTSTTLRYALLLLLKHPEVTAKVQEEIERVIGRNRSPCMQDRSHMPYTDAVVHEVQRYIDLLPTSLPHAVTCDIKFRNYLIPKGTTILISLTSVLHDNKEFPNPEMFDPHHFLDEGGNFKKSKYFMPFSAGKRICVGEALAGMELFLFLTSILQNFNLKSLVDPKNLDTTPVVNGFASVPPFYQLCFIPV

CYP3A4 = CYP3A4 (Homo sapiens, UniProt P08684); assay: as above
Sequence of CYP3A4 (P08684 whole entry): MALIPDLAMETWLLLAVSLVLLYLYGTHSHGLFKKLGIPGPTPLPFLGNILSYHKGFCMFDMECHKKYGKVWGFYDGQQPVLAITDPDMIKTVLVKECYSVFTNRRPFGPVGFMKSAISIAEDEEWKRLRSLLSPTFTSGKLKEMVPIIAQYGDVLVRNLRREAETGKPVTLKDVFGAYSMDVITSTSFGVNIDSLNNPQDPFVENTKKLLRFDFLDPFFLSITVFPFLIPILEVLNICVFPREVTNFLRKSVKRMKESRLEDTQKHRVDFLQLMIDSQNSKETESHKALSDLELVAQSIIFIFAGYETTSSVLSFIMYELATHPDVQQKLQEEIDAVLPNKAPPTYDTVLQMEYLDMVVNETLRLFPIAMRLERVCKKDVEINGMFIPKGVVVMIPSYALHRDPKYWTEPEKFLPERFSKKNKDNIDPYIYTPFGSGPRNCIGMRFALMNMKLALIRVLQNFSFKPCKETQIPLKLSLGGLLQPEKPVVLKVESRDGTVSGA
Method: (§1) CYP450 remaining test was conducted using Vivid® CYP450 Screening Kits Protocol (Invitrogen), and hERG assay for cardiac toxicity test was conducted using an automated patch-clamp device, NPC-16 Patchliner (Nanion Technologies, Munchen, Germany) according to the method of C. Farre, et al. (Combinatorial Chemistry & High Throughput Screening, 2009, 12, 24-37). And, human hepatic microsomal stability test was conducted according to the method of W. A. Korfmacher, et al. (Rapid Commun. Mass Spectrom. 13, 901-907 (1999)).

hERG = hERG (Homo sapiens, UniProt Q12809); assay: hERG assay for cardiac toxicity, automated patch-clamp; format: cell-based
Sequence of hERG (Q12809 whole entry): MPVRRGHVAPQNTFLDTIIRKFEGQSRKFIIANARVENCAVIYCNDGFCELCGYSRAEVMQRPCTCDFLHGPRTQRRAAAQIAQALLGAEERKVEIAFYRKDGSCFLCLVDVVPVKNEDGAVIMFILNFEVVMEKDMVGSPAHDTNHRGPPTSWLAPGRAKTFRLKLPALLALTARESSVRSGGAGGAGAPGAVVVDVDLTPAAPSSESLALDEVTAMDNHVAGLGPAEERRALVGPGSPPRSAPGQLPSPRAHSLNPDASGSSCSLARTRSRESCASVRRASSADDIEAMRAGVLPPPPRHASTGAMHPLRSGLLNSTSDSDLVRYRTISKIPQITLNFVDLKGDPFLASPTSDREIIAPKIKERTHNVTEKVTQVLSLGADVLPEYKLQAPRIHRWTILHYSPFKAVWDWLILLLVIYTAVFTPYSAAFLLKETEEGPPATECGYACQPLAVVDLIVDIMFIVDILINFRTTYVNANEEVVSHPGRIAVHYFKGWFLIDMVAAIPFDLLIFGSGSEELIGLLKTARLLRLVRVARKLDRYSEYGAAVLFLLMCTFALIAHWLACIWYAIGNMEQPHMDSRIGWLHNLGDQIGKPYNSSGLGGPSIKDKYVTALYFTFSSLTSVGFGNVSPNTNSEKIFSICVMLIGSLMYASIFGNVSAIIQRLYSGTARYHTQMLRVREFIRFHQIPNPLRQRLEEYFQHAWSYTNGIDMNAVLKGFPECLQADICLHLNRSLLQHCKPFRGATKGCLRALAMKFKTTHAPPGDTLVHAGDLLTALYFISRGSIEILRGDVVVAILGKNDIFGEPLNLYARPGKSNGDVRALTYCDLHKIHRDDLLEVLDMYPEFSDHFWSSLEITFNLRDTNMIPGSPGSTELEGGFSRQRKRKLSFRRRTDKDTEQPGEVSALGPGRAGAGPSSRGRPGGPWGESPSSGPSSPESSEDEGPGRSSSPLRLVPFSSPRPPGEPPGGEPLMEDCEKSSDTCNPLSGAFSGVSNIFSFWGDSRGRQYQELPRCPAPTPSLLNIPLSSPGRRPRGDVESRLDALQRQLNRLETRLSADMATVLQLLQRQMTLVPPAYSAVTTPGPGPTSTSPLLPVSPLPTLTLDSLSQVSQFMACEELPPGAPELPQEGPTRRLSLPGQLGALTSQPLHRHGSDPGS

[15] = system: CYP1A2, CYP2D6, CYP2C9, CYP3A4; assay: in vitro; format: in vitro ADME; conditions: human
CYP1A2 = target: T1, CYP1A2 (Homo sapiens, UniProt P05177); assay: CYP450 remaining test (Vivid CYP450 Screening Kits); format: in vitro ADME; conditions: isozyme 1A2
T1 construct: purchased Invitrogen
T1 sequence (P05177 whole entry): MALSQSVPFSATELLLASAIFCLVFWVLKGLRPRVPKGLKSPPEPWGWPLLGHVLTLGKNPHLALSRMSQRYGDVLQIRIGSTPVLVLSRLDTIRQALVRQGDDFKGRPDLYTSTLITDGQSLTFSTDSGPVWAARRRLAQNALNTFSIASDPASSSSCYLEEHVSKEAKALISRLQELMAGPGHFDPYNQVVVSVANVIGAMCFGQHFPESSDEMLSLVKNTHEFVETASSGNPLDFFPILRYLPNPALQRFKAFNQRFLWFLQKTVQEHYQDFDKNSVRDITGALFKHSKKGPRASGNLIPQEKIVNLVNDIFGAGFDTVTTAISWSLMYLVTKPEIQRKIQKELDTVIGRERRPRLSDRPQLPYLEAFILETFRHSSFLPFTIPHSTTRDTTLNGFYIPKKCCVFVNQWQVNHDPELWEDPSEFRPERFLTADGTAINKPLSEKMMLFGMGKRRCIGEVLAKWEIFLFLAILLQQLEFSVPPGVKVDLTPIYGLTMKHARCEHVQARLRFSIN

[16] = Human hepatic microsomal stability test; format: in vitro ADME; conditions: human hepatic microsomes
CYP2D6 = CYP2D6 (Homo sapiens, UniProt P10635); assay: CYP450 remaining test (Vivid CYP450 Screening Kits)
Sequence of CYP2D6 (P10635 whole entry): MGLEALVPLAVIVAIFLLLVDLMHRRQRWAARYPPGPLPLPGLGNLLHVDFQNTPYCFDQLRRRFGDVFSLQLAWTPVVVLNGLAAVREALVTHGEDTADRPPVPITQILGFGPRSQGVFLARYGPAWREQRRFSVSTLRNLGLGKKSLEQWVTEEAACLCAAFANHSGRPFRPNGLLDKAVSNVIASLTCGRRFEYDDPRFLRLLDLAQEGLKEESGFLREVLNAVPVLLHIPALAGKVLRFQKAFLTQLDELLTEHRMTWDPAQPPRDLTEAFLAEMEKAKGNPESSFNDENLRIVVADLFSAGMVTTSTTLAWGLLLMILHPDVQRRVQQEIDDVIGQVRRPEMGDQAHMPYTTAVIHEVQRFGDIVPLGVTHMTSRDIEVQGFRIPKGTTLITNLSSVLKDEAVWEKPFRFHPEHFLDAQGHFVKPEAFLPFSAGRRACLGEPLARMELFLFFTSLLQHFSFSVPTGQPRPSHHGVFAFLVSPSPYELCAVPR
Method: as §1

[17] = automated patch-clamp, NPC-16 Patchliner

Compound	MIC (Staphylococcus pyogenes)	MIC [1]	MIC [2]	MIC [3]	MIC [4]	MIC [5]	MIC [6]	MIC [7]	MIC [8]	MIC [9]	MIC [10]	MIC [11]	MIC [12]	antituberculous activity compared to linezolid [13]	antibacterial activity against the strain panel [14]	further results
O=C1O[C@@H](Cn2ccnn2)CN1c1ccc(N2CC3CC(=NO)CC3C2)c(F)c1 (stereo partly drawn) [Example 5, (5R)-3-[3-fluoro-4-(5-hydroxyimino-hexahydro-cyclopenta[c]pyrrol-2-yl)phenyl]-5-(1,2,3-triazol-1-ylmethyl)oxazolidin-2-one]	0.7 µg/mL (≈ 1.75 µM)	0.7 µg/mL (≈ 1.75 µM)	1.5 µg/mL (≈ 3.75 µM)	3.1 µg/mL (≈ 7.74 µM)	6.2 µg/mL (≈ 15.5 µM)	6.2 µg/mL (≈ 15.5 µM)	1.5 µg/mL (≈ 3.75 µM)	6.2 µg/mL (≈ 15.5 µM)	6.2 µg/mL (≈ 15.5 µM)	6.2 µg/mL (≈ 15.5 µM)	6.2 µg/mL (≈ 15.5 µM)	6.2 µg/mL (≈ 15.5 µM)	3.1 µg/mL (≈ 7.74 µM)	–	–	–
N#CC=C1CC2CN(c3ccc(N4C[C@H](Cn5ccnn5)OC4=O)cc3F)CC2C1 (stereo partly drawn) [Example 7, (5R)-3-[4-(5-cyanomethylene-hexahydro-cyclopenta[c]pyrrol-2-yl)-3-fluorophenyl]-5-(1,2,3-triazol-1-ylmethyl)oxazolidin-2-one]	0.3 µg/mL (≈ 0.735 µM)	0.3 µg/mL (≈ 0.735 µM)	0.7 µg/mL (≈ 1.71 µM)	1.5 µg/mL (≈ 3.67 µM)	1.5 µg/mL (≈ 3.67 µM)	1.5 µg/mL (≈ 3.67 µM)	0.7 µg/mL (≈ 1.71 µM)	3.1 µg/mL (≈ 7.59 µM)	1.5 µg/mL (≈ 3.67 µM)	1.5 µg/mL (≈ 3.67 µM)	0.7 µg/mL (≈ 1.71 µM)	1.5 µg/mL (≈ 3.67 µM)	0.3 µg/mL (≈ 0.735 µM)	antibacterial effects equivalent to linezolid	high antibacterial activities	–
Nc1ccc(S(=O)(=O)Nc2ccnn2-c2ccccc2)cc1 [sulfaphenazol, reference compound]	–	–	–	–	–	–	–	–	–	–	–	–	–	–	–	activity (CYP2C9): -3.5%
CC(=O)NC[C@H]1CN(c2ccc(N3CC4C=C(CC#N)CC4C3)c(F)c2)C(=O)O1 (stereo partly drawn) [Example 2, N-[[(5S)-3-[4-(5-cyanomethyl-3,3a,4,6a-tetrahydro-1H-cyclopenta[c]pyrrol-2-yl)-3-fluorophenyl]-2-oxo-5-oxazolidinyl]methyl]acetamide]	0.7 µg/mL (≈ 1.76 µM)	0.7 µg/mL (≈ 1.76 µM)	1.5 µg/mL (≈ 3.76 µM)	1.5 µg/mL (≈ 3.76 µM)	1.5 µg/mL (≈ 3.76 µM)	3.1 µg/mL (≈ 7.78 µM)	0.7 µg/mL (≈ 1.76 µM)	3.1 µg/mL (≈ 7.78 µM)	3.1 µg/mL (≈ 7.78 µM)	3.1 µg/mL (≈ 7.78 µM)	1.5 µg/mL (≈ 3.76 µM)	1.5 µg/mL (≈ 3.76 µM)	1.5 µg/mL (≈ 3.76 µM)	antibacterial effects equivalent to linezolid	high antibacterial activities	–
N#CCC1=CC2CN(c3ccc(N4C[C@H](Cn5ccnn5)OC4=O)cc3F)CC2C1 (stereo partly drawn) [Example 8, (5R)-3-[4-(5-cyanomethyl-3,3a,4,6a-tetrahydro-1H-cyclopenta[c]pyrrol-2-yl)-3-fluorophenyl]-5-(1,2,3-triazol-1-ylmethyl)oxazolidin-2-one]	1.5 µg/mL (≈ 3.67 µM)	1.5 µg/mL (≈ 3.67 µM)	3.1 µg/mL (≈ 7.59 µM)	6.2 µg/mL (≈ 15.2 µM)	6.2 µg/mL (≈ 15.2 µM)	6.2 µg/mL (≈ 15.2 µM)	3.1 µg/mL (≈ 7.59 µM)	6.2 µg/mL (≈ 15.2 µM)	6.2 µg/mL (≈ 15.2 µM)	6.2 µg/mL (≈ 15.2 µM)	1.5 µg/mL (≈ 3.67 µM)	6.2 µg/mL (≈ 15.2 µM)	1.5 µg/mL (≈ 3.67 µM)	–	–	–
CON=C1CC2CN(c3ccc(N4C[C@H](Cn5ccnn5)OC4=O)cc3F)CC2C1 (stereo partly drawn) [Example 6, (5R)-3-[3-fluoro-4-(5-methoxyimino-hexahydro-cyclopenta[c]pyrrol-2-yl)phenyl]-5-(1,2,3-triazol-1-ylmethyl)oxazolidin-2-one]	0.1 µg/mL (≈ 0.241 µM)	0.1 µg/mL (≈ 0.241 µM)	0.3 µg/mL (≈ 0.724 µM)	1.5 µg/mL (≈ 3.62 µM)	1.5 µg/mL (≈ 3.62 µM)	6.2 µg/mL (≈ 15 µM)	0.3 µg/mL (≈ 0.724 µM)	3.1 µg/mL (≈ 7.48 µM)	6.2 µg/mL (≈ 15 µM)	6.2 µg/mL (≈ 15 µM)	6.2 µg/mL (≈ 15 µM)	1.5 µg/mL (≈ 3.62 µM)	0.3 µg/mL (≈ 0.724 µM)	antibacterial effects equivalent to linezolid	–	–
CC(=O)NC[C@H]1CN(c2ccc(N3CC4CC(=CC#N)CC4C3)c(F)c2)C(=O)O1 (stereo partly drawn) [Example 1, N-[[(5S)-3-[4-(5-cyanomethylene-hexahydro-cyclopenta[c]pyrrol-2-yl)-3-fluorophenyl]-2-oxo-5-oxazolidinyl]methyl]acetamide]	0.7 µg/mL (≈ 1.76 µM)	0.7 µg/mL (≈ 1.76 µM)	1.5 µg/mL (≈ 3.76 µM)	0.7 µg/mL (≈ 1.76 µM)	1.5 µg/mL (≈ 3.76 µM)	3.1 µg/mL (≈ 7.78 µM)	0.7 µg/mL (≈ 1.76 µM)	1.5 µg/mL (≈ 3.76 µM)	3.1 µg/mL (≈ 7.78 µM)	3.1 µg/mL (≈ 7.78 µM)	3.1 µg/mL (≈ 7.78 µM)	1.5 µg/mL (≈ 3.76 µM)	0.7 µg/mL (≈ 1.76 µM)	antibacterial effects equivalent to linezolid	–	–
CC(=O)N1CCN(c2ccc(OCC3COC(Cn4ccnc4)(c4ccc(Cl)cc4Cl)O3)cc2)CC1 (centres unmarked) [ketoconazole, reference compound]	–	–	–	–	–	–	–	–	–	–	–	–	–	–	–	activity (CYP3A4): 2.3%
CC(=O)NC[C@H]1CN(c2ccc(N3CC4C=C(C#N)CC4C3)c(F)c2)C(=O)O1 (stereo partly drawn) [Example 3, N-[[(5S)-3-[4-(5-cyano-3,3a,4,6a-tetrahydro-1H-cyclopenta[c]pyrrol-2-yl)-3-fluorophenyl]-2-oxo-5-oxazolidinyl]methyl]acetamide]	0.7 µg/mL (≈ 1.82 µM)	0.3 µg/mL (≈ 0.78 µM)	1.5 µg/mL (≈ 3.9 µM)	1.5 µg/mL (≈ 3.9 µM)	3.1 µg/mL (≈ 8.06 µM)	3.1 µg/mL (≈ 8.06 µM)	0.7 µg/mL (≈ 1.82 µM)	3.1 µg/mL (≈ 8.06 µM)	3.1 µg/mL (≈ 8.06 µM)	3.1 µg/mL (≈ 8.06 µM)	1.5 µg/mL (≈ 3.9 µM)	1.5 µg/mL (≈ 3.9 µM)	0.3 µg/mL (≈ 0.78 µM)	more excellent antibacterial activities than linezolid	high antibacterial activities	–
O=C1CC2CN(c3ccc(N4C[C@H](Cn5ccnn5)OC4=O)cc3F)CC2C1 (stereo partly drawn) [Example 4, (5R)-3-[3-fluoro-4-(5-oxo-hexahydro-cyclopenta[c]pyrrol-2-yl)phenyl]-5-(1,2,3-triazol-1-ylmethyl)oxazolidin-2-one]	0.3 µg/mL (≈ 0.778 µM)	0.3 µg/mL (≈ 0.778 µM)	0.7 µg/mL (≈ 1.82 µM)	1.5 µg/mL (≈ 3.89 µM)	1.5 µg/mL (≈ 3.89 µM)	3.1 µg/mL (≈ 8.04 µM)	0.7 µg/mL (≈ 1.82 µM)	1.5 µg/mL (≈ 3.89 µM)	3.1 µg/mL (≈ 8.04 µM)	3.1 µg/mL (≈ 8.04 µM)	3.1 µg/mL (≈ 8.04 µM)	3.1 µg/mL (≈ 8.04 µM)	1.5 µg/mL (≈ 3.89 µM)	more excellent antibacterial activities than linezolid	high antibacterial activities	IC50 (hERG; [17]): 80.5 µM; hERG Max, (hERG; [17]): 38%; hERG bonding (hERG; in vitro hERG assay, cardiac toxicity): does not have hERG bonding; activity (CYP2C9): 73.7%; activity [15]: 73.6 to 106%; activity (CYP1A2): 94.9%; Human Hepatic Microsomal stability Remaining activity after 30 minutes (%) [16]: 83.8%; activity (CYP3A4): 106%; activity (CYP2D6): 108%
C=C[C@H]1C[N@@]2CC[C@H]1C[C@@H]2[C@@H](O)c1ccnc2ccc(OC)cc12 [quinidine, reference compound]	–	–	–	–	–	–	–	–	–	–	–	–	–	–	–	activity (CYP2D6): 11.1%
CC(=O)NC[C@H]1CN(c2ccc(N3CCOCC3)c(F)c2)C(=O)O1 [LZD, linezolid, reference compound]	0.7 µg/mL (≈ 2.07 µM)	0.7 µg/mL (≈ 2.07 µM)	1.5 µg/mL (≈ 4.45 µM)	1.5 µg/mL (≈ 4.45 µM)	1.5 µg/mL (≈ 4.45 µM)	3.1 µg/mL (≈ 9.19 µM)	0.7 µg/mL (≈ 2.07 µM)	1.5 µg/mL (≈ 4.45 µM)	3.1 µg/mL (≈ 9.19 µM)	3.1 µg/mL (≈ 9.19 µM)	3.1 µg/mL (≈ 9.19 µM)	1.5 µg/mL (≈ 4.45 µM)	0.7 µg/mL (≈ 2.07 µM)	–	–	–
N#CC1=CC2CN(c3ccc(N4C[C@H](Cn5ccnn5)OC4=O)cc3F)CC2C1 (stereo partly drawn) [Example 9, (5R)-3-[4-(5-cyano-3,3a,4,6a-tetrahydro-1H-cyclopenta[c]pyrrol-2-yl)-3-fluorophenyl]-5-(1,2,3-triazol-1-ylmethyl)oxazolidin-2-one]	0.7 µg/mL (≈ 1.77 µM)	0.7 µg/mL (≈ 1.77 µM)	1.5 µg/mL (≈ 3.8 µM)	3.1 µg/mL (≈ 7.86 µM)	3.1 µg/mL (≈ 7.86 µM)	3.1 µg/mL (≈ 7.86 µM)	1.5 µg/mL (≈ 3.8 µM)	3.1 µg/mL (≈ 7.86 µM)	3.1 µg/mL (≈ 7.86 µM)	3.1 µg/mL (≈ 7.86 µM)	1.5 µg/mL (≈ 3.8 µM)	3.1 µg/mL (≈ 7.86 µM)	0.7 µg/mL (≈ 1.77 µM)	–	–	–
